Data taken from patent US9855270B2, “Methods and compositions for modulating estrogen receptor mutants” (priority 2014, dated 2018).
Positions count from the first letter of the chain named. Read-outs that look alike come from different tables or passages of the source.

What was measured:
ER-α E380Q = biological target: T1, ER-α E380Q (Homo sapiens, UniProt P03372, E380Q); conditions: Agonist Mode; for Efficacy (Emax): −E2, relative to vehicle treated wild-type ER-α
T1 sequence (P03372 1-595 E380Q): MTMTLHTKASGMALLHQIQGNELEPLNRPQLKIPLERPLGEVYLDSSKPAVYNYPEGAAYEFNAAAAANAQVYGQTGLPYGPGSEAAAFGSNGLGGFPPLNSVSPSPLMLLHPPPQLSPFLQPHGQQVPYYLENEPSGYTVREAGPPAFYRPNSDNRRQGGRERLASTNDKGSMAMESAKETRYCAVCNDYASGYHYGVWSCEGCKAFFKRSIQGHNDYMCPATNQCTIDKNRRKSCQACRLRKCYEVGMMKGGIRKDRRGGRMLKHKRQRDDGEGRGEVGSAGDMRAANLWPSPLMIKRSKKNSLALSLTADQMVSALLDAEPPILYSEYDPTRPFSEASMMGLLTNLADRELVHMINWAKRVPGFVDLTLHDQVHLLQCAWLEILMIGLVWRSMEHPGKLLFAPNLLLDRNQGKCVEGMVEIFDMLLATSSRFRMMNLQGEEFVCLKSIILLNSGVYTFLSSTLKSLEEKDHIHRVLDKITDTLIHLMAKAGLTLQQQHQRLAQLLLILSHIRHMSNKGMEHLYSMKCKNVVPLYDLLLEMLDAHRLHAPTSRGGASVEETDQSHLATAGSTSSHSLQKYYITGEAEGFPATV
Experimental: (§1) Cells were transiently transfected using
(§2) Triplicate transfections were performed using 180 ng 3×ERE-TK-Luc (reporter vector), 30 ng pRL-CMV (normalization vector), and 270 ng pCDNA ER-α (or ER-α mutation).
(§3) Following 24 hour incubation the medium was removed and the cells were lysed in 40 μL of lysis buffer (25 mM Tris Phosphate, 2 mM CDTA, 10% Glycerol, 0.5% Triton X-100, 2 mM DTT).

ER-α L536R = biological target: T2, ER-α L536R (Homo sapiens, UniProt P03372, L536R)
T2 sequence (P03372 1-595 L536R): T1 sequence (P03372 1-595 E380Q) with Q380E, L536R
Experimental: as §1, §2, §3

ER-α Y537N = biological target: T3, ER-α Y537N (Homo sapiens, UniProt P03372, Y537N)
T3 sequence (P03372 1-595 Y537N): T1 sequence (P03372 1-595 E380Q) with Q380E, Y537N
Experimental: as §1, §2, §3

wild-type ER-α = biological target: T4, wild-type ER-α (Homo sapiens, UniProt P03372)
T4 sequence (P03372 1-595): T1 sequence (P03372 1-595 E380Q) with Q380E

[1] = Agonist Mode, −E2, relative to vehicle treated wild-type ER-α
[2] = Antagonist Mode, +E2, relative to vehicle treated wild-type ER-α

Structure (SMILES) | Percent inhibition compared to vehicle (ER-α E380Q; −E2) [%] | Efficacy (Emax) (ER-α E380Q) | Percent inhibition compared to vehicle (ER-α L536R; Agonist Mode, −E2) [%] | Efficacy (Emax) (ER-α L536R; [1]) | Percent inhibition compared to vehicle (ER-α L536R; Antagonist Mode, +E2) [%] | Efficacy (Emax) (ER-α L536R; [2]) | Percent inhibition compared to vehicle (ER-α Y537N; Agonist Mode, −E2) [%] | Efficacy (Emax) (ER-α Y537N; [1]) | Percent inhibition compared to vehicle (ER-α Y537N; Antagonist Mode, +E2) [%] | Efficacy (Emax) (ER-α Y537N; [2]) | Percent inhibition compared to vehicle (wild-type ER-α; Agonist Mode, −E2) [%] | Efficacy (Emax) (wild-type ER-α; [1]) | Percent inhibition compared to vehicle (wild-type ER-α; Antagonist Mode, +E2) [%] | Efficacy (Emax) (wild-type ER-α; [2])
CC1=C(c2cccc(O)c2)[C@H](c2ccc(OCCN3CC(CF)C3)cc2)Oc2ccc(O)cc21 [Compound 4-23, (S)-2-(4-(2-(3-(fluoromethyl)azetidin-1-yl)ethoxy)phenyl)-3-(3-hydroxyphenyl)-4-methyl-2H-chromen-6-ol] | 73 | 0.57 | 80 | 0.29 ± 0.22 | 94 | 0.15 ± 0.07 | 92 | 0.32 ± 0.27 | 96 | 0.16 ± 0.08 | 86 | 0.14 ± 0.10 | 96 | 0.08 ± 0.07
C[C@]12CC[C@@H]3c4ccc(O)cc4C[C@@H](CCCCCCCCC[S+]([O-])CCCC(F)(F)C(F)(F)F)[C@H]3[C@@H]1CC[C@@H]2O (stereo partly drawn) [Fulvestrant] |  | 0.38 |  | 0.32 ± 0.12 |  | 0.30 ± 0.11 |  | 0.30 ± 0.18 |  | 0.20 ± 0.20 |  | 0.15 ± 0.09 |  | 0.06 ± 0.08
